Here are results for one compound from patent US10722444B2, “Stable hydrogel compositions including additives” (Allergan Industrie, SAS, priority 2014, dated 2020).

Data set [1] can be described thus: Autoclaving stability of HA-based gel with additive (pH, extrusion force, rheology, appearance). Conditions: for ΔpH / ΔTan δ (1 Hz): gel with additive minus gel without. Type of data set: physicochemical. As to the method: Stability of a hydrogel composition disclosed herein can be determined by subjecting a hydrogel composition to a heat treatment, such as, e.g., steam sterilization at normal pressure or under pressure (e.g., autoclaving). Preferably the heat treatment is carried out at a temperature of at least about 100° C. for between about one minute and about 15 minutes. Substantial stability of a hydrogel composition disclosed herein can be evaluated 1) by determining the change in the extrusion force (ΔF) of a hydrogel composition disclosed herein after sterilization, where the change in extrusion force less 2N is indicative of a substantially stable hydrogel composition as measured by (the extrusion force of a hydrogel composition with the specified additives) minus (the extrusion force of the a hydrogel composition without the added additives); and/or 2) by determining the change in rheological properties of a hydrogel composition disclosed herein after sterilization, where the change in tan δ 1 Hz of less than 0.1 is indicative of a substantially stable hydrogel composition as measured by Δ Tan δ 1 Hz=(tan δ 1 Hz of gel formulation with additives) minus (tan δ 1 Hz of gel formulation without additives). As such, a substantially stable hydrogel composition disclosed herein retains one or more of the following characteristics after sterilization: homogeneousness, extrusion force, cohesiveness, hyaluronan concentration, agent(s) concentration, osmolarity, pH, or other rheological characteristics such as tan δ.
(§1) Reminder for stability assessment with extrusion force: ΔF (F gel with additive −F gel without additive)<2N
Reminder for stability assessment with rheology: ΔTan δ (Tan δ 1 Hz gel with additive −Tan δ 1 Hz gel without additive)<0.1
Caffeic acid, at a concentration of 0.6%,(w/w), was incorporated into a HA-based gel matrix at 24 mg/g containing 5% of uncrosslinked HA. The gel formulated was autoclaved.
Inoveol® CAFA (supplied by Libragen), (INCI name: Aqua (and) Caffeyl Glucoside), a derivative of caffeic acid, at a concentration of 0.5% (w/w) of commercial solution, was incorporated into a HA-based gel matrix containing a viscoelastic portion. The gel formulated was autoclaved.
The gel formulated was autoclaved.

Data set [2] is described as follows: Long term stability / accelerated aging at 45° C. of HA-based gel with additive. As to conditions: for ΔpH / ΔTan δ (1 Hz): 0.6% (w/w) caffeic acid gel of Example 1 vs HA-based gel matrix without additives. The data set is classed as physicochemical. As to the method:
Long term stability of a hydrogel composition disclosed herein can be determined by subjecting a hydrogel composition to a heat treatment, such as, e.g., storage in an about 45° C. environment for about 60 days. Long term stability of a hydrogel composition disclosed herein can be evaluated 1) by assessing the clarity and color of a hydrogel composition after the 45° C. heat treatment, with a clear and uncolored hydrogel composition being indicative of a substantially stable hydrogel composition; 2) by determining the change in the extrusion force (ΔF) of a hydrogel composition disclosed herein after the 45° C. heat treatment, where the change in extrusion force less 2N is indicative of a substantially stable hydrogel composition as measured by (the extrusion force of a hydrogel composition with the specified additives before and after the 45° C. heat treatment) minus (the extrusion force of the a hydrogel composition without the specified additives before and after the 45° C. heat treatment); and 3) by determining the change in rheological properties of a hydrogel composition disclosed herein after sterilization, where the change in tan δ 1 Hz of less than 0.1 is indicative of a substantially stable hydrogel composition as measured by Δ Tan δ 1 Hz=(tan δ 1 Hz of gel formulation with the specified additives before and after the 45° C. heat treatment) minus (tan δ 1 Hz of gel formulation without the specified additives before and after the 45° C. heat treatment). As such, a long term stability of a hydrogel composition disclosed herein is evaluated by retention of one or more of the following characteristics after the 45° C. heat treatment: clarity (transparency and translucency), homogeneousness, and cohesiveness.
as §1
Reminder for stability assessment with rheology: ΔTan δ (Tan δ 1 Hz gel with additive −Tan δ 1 Hz gel without additive)<0.1 […]
The formulation prepared in Example 3 was subjected to accelerated aging or accelerated degradation in order to test the stability of the gel. […]

Where [3] appears, read: after autoclaving, 0.6% (w/w) caffeic acid in HA-based gel matrix at 24 mg/g containing 5% uncrosslinked HA.
The mark [4] stands for this setting: before autoclaving, 0.6% (w/w) caffeic acid in HA-based gel matrix at 24 mg/g containing 5% uncrosslinked HA.
The mark [5] stands for this setting: after 30 days at 45° C., 0.6% (w/w) caffeic acid gel of Example 1.

In the case of `O=C(O)/C=C/c1ccc(O)c(O)c1` [Caffeic acid], in data set [1] (setting [3]), the “appearance of the gel compared with before autoclaving” value is listed as “similar”, the ΔpH amounted to 0.55 and the “ΔTan δ (1 Hz)” value came out at 0.02. In addition, the extrusion analysis finding result in data set [1] (autoclaved gel with 0.6% (w/w) caffeic acid) is on record as “beginning of degradation of the uncrosslinked hyaluronic acid”. Besides, in data set [1] (setting [4]), the “appearance of the gel” value is “clear and brown”; the ΔpH was determined as 0.18; the “ΔTan δ (1 Hz)” value is listed as −0.003. Moreover, in data set [2] (10 days at 45° C.), the ΔpH stood at 1.05 and the “ΔTan δ (1 Hz)” value is listed as 0.0560. In data set [2] (20 days at 45° C.), the ΔpH turned out to be 0.90 and the “ΔTan δ (1 Hz)” value amounted to 0.077. In addition, in data set [2] (30 days at 45° C.), the ΔpH is recorded as 1.06 and the “ΔTan δ (1 Hz)” value is reported as 0.144. In addition, in data set [2] (setting [5]), the “colour of the gel” value was “dark brown” and the “physical analysis of the gel, finding” value is “degradation of the formulation”.
